Some test systems named below: SNB-75; SK-MEL-2; U-251; OVCAR-4; 786-0; M19-MEL; HT-29; COLO 205; NCI-H23; HOP-92; HCT-116; RXF 393; Malme-3M; UACC-257; LXFL 529; CAKI-1; NCI/ADR-RES; Hs-578T; DU-145; MDA-MB-435.
Holding throughout (experiment): NCI anticancer screen, dose series, 48 h

Here are results for twelve compounds from ChEMBL document CHEMBL1201862, “PubChem BioAssay data set” (2004).

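Results reflect a 48-hour exposure of cells in 96-well plates to compound at five concentrations. GI50: concentration for 50% inhibition of growth.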 Calls of active or inactive are those of the source. Rule as the data show it: active = GI50 up to about 1.1 µM and inactive = higher.

On to `CCc1cccc(C(C)C)c1NC(=O)C(=O)C(C(=O)C(=O)OC)c1nc2ccccc2nc1O` (stereo not given), for which the GI50 in the experiment on SNB-75, in the experiment on SK-MEL-2, in the experiment on U-251, in the experiment on OVCAR-4, with 786-0 and with M19-MEL was > 100 µM (inactive) throughout. The GI50 with HT-29, with COLO 205, with NCI-H23, in the experiment on HOP-92, in the experiment on HCT-116 and with RXF 393 was > 100 µM (inactive) in each case. Besides, the GI50 with Malme-3M, in the experiment with UACC-257, in the experiment with LXFL 529 and with CAKI-1 was > 100 µM (inactive) in each case.
`CC(/C=C/C=C\C=C\C=C(/C)C(=O)NC(C)CO)=C\C(C)C(O)/C(C)=C/C(C)CCc1ccccc1` (stereo not given): the GI50 with SNB-75 was 13 µM (inactive); in the experiment on SK-MEL-2 it was 13.2 µM (inactive); in the experiment on U-251 it was 14.9 µM (inactive); with OVCAR-4, 12.4 µM (inactive); in the experiment with 786-0, 13.4 µM (inactive); with M19-MEL it was 5.15 µM (inactive). The GI50 was 11.6 µM (inactive) with HT-29; 13.7 µM (inactive) with COLO 205; 15.6 µM (inactive) in the experiment with NCI/ADR-RES; < 0.01 µM (active) in the experiment with NCI-H23; 5.41 µM (inactive) in the experiment on HOP-92; 0.127 µM (active) in the experiment with HCT-116. In addition, the GI50 in the experiment on Hs-578T is 19.3 µM (inactive); in the experiment on RXF 393 it was 12.9 µM (inactive); with Malme-3M, 6.64 µM (inactive); in the experiment with UACC-257, 0.0359 µM (active); in the experiment on LXFL 529, 3.18 µM (inactive); in the experiment with CAKI-1 it was 14.2 µM (inactive). Moreover, the values for the GI50 in the experiment on DU-145 and in the experiment with MDA-MB-435 were 13.8 µM (inactive) and 12.8 µM (inactive), respectively.
As for `CC1CC(C2=CC=CCS2)=Nc2ccccc2S1` (stereo not given), the GI50 is 14.1 µM (inactive) with SNB-75; > 100 µM (inactive) in the experiment on SK-MEL-2; > 100 µM (inactive) in the experiment on U-251; > 100 µM (inactive) in the experiment with OVCAR-4; > 100 µM (inactive) in the experiment on 786-0; > 100 µM (inactive) in the experiment with M19-MEL. The GI50 with COLO 205 is > 100 µM (inactive); in the experiment on NCI-H23, > 100 µM (inactive); with HOP-92, 48.4 µM (inactive); with HCT-116, 84.9 µM (inactive); in the experiment on RXF 393, > 100 µM (inactive); in the experiment on Malme-3M, > 100 µM (inactive). Moreover, the GI50 is 12.3 µM (inactive) in the experiment on UACC-257, > 100 µM (inactive) in the experiment on LXFL 529 and > 100 µM (inactive) with CAKI-1.
Consider `COc1ccccc1NC(=O)CC(=O)n1nc(C)c(/N=N/c2ccccc2Cl)c1C`, for which the GI50 in the experiment on SNB-75 was 25.5 µM (inactive); in the experiment on SK-MEL-2 it was > 100 µM (inactive); in the experiment on U-251, 27.8 µM (inactive); in the experiment on OVCAR-4 it was > 100 µM (inactive); in the experiment on 786-0 it was > 100 µM (inactive); in the experiment with M19-MEL, > 100 µM (inactive). The GI50 with HT-29 was > 100 µM (inactive); in the experiment with COLO 205, > 100 µM (inactive); in the experiment with NCI/ADR-RES it was > 100 µM (inactive); in the experiment on NCI-H23 it was > 37.2 µM (inactive); in the experiment with HOP-92, > 93.8 µM (inactive); with HCT-116 it was > 100 µM (inactive). The GI50 was > 100 µM (inactive) in the experiment on Hs-578T; > 100 µM (inactive) in the experiment with RXF 393; > 100 µM (inactive) with Malme-3M; > 91.4 µM (inactive) in the experiment on UACC-257; > 100 µM (inactive) with LXFL 529; > 100 µM (inactive) in the experiment with CAKI-1. The GI50 in the experiment with DU-145 and with MDA-MB-435 was > 100 µM (inactive) throughout.
For `CCOc1ccccc1NC(=O)C(=O)Cc1nc2ccccc2s1`, the GI50 was 77.1 µM (inactive) with SNB-75; > 100 µM (inactive) in the experiment on SK-MEL-2; > 100 µM (inactive) in the experiment with U-251; 90.4 µM (inactive) with OVCAR-4; > 100 µM (inactive) in the experiment on 786-0; > 100 µM (inactive) with M19-MEL. Also, the GI50 in the experiment with HT-29, with COLO 205, in the experiment with NCI-H23, with HOP-92, in the experiment on HCT-116 and with RXF 393 was > 100 µM (inactive) throughout. The GI50 in the experiment on Malme-3M, in the experiment with UACC-257, with LXFL 529 and in the experiment on CAKI-1 was > 100 µM (inactive) each time.
`COc1cc2c(cc1OC)C1C=NC(C(=O)O)(C2)c2ccccc21` (stereo not given): the GI50 in the experiment on SNB-75, with U-251, with OVCAR-4, with 786-0, in the experiment with M19-MEL and with HT-29 was > 100 µM (inactive) each time. In addition, the GI50 with COLO 205, in the experiment with NCI-H23, in the experiment with HOP-92, in the experiment with HCT-116, in the experiment on RXF 393 and in the experiment with Malme-3M was > 100 µM (inactive) in each case. In addition, the GI50 in the experiment on UACC-257, in the experiment on LXFL 529 and in the experiment with CAKI-1 was > 100 µM (inactive) throughout.
As for `COC(=O)C(CCS(=O)(=O)CC(=O)C(=O)Nc1cccc(C(C)=O)c1)C(=O)OC`, the GI50 with SNB-75 is > 100 µM (inactive); with SK-MEL-2, > 100 µM (inactive); in the experiment with U-251, > 89.7 µM (inactive); in the experiment with OVCAR-4 it was > 100 µM (inactive); in the experiment with 786-0, > 100 µM (inactive); with M19-MEL, > 100 µM (inactive). For the same compound, the GI50 in the experiment with HT-29 was > 100 µM (inactive); with COLO 205, > 54.5 µM (inactive); in the experiment on NCI-H23, > 100 µM (inactive); in the experiment on HOP-92 it was > 100 µM (inactive); with HCT-116, > 56.6 µM (inactive); in the experiment with RXF 393, > 100 µM (inactive). The GI50 in the experiment with Malme-3M, in the experiment on UACC-257, in the experiment with LXFL 529 and in the experiment on CAKI-1 was > 100 µM (inactive) each time.
For `Cc1nc2c3c(ccc2nc1O)C(=O)c1ccccc1C3=O`, the GI50 is 15.6 µM (inactive) in the experiment with SNB-75; 54.1 µM (inactive) in the experiment with U-251; > 100 µM (inactive) in the experiment on OVCAR-4; > 100 µM (inactive) with 786-0; > 100 µM (inactive) in the experiment on M19-MEL; > 100 µM (inactive) with HT-29. Besides, the GI50 is > 100 µM (inactive) in the experiment with COLO 205; 66.7 µM (inactive) in the experiment with NCI-H23; 96.2 µM (inactive) in the experiment with HOP-92; 40 µM (inactive) in the experiment with HCT-116; 13.1 µM (inactive) in the experiment on RXF 393; > 100 µM (inactive) in the experiment with Malme-3M. The GI50 with UACC-257 was > 100 µM (inactive); in the experiment with LXFL 529, 70 µM (inactive); in the experiment with CAKI-1 it was 25.3 µM (inactive).
For `NC1=NN(c2ccccc2)C(=O)C1/C(=N\NC(=O)c1cc2ccccc2cc1O)C(=O)Nc1nc([N+](=O)[O-])cs1` (stereo not given), the GI50 is 18.5 µM (inactive) with SNB-75; > 49.8 µM (inactive) in the experiment with SK-MEL-2; 27.7 µM (inactive) with U-251; 33.7 µM (inactive) in the experiment on OVCAR-4; 31.5 µM (inactive) with 786-0; 27.8 µM (inactive) with M19-MEL. Also, the GI50 in the experiment on HT-29 was 32.7 µM (inactive); with COLO 205, 23.7 µM (inactive); with NCI-H23, 18.4 µM (inactive); with HOP-92, 13.7 µM (inactive); with HCT-116 it was 32.1 µM (inactive); with RXF 393, 2.73 µM (inactive). Also, the GI50 with Malme-3M was > 65 µM (inactive); in the experiment with UACC-257, 22.2 µM (inactive); in the experiment with LXFL 529 it was 34.8 µM (inactive); in the experiment on CAKI-1 it was > 25.6 µM (inactive).
In the case of `CC(C)N(C(=O)C12C3C4C5C3C1(C(=O)N(C(C)C)C(C)C)C5C42)C(C)C` (stereo not given), the GI50 in the experiment with SNB-75, with SK-MEL-2, with U-251, in the experiment on OVCAR-4, in the experiment on 786-0 and in the experiment with M19-MEL was > 100 µM (inactive) throughout. The GI50 was > 100 µM (inactive) with HT-29; > 44.5 µM (inactive) with COLO 205; > 100 µM (inactive) in the experiment with NCI-H23; > 100 µM (inactive) in the experiment on HOP-92; > 43.6 µM (inactive) in the experiment on HCT-116; > 100 µM (inactive) in the experiment with RXF 393. In addition, the GI50 in the experiment on Malme-3M was > 100 µM (inactive); in the experiment with UACC-257 it was > 100 µM (inactive); in the experiment on LXFL 529 it was > 80.4 µM (inactive); in the experiment on CAKI-1 it was > 100 µM (inactive).
Consider `CCCc1cc(OC(=O)c2c(O)cc(OC)cc2CCC)cc(O)c1C(=O)O`, for which the GI50 in the experiment with SNB-75 is 27.5 µM (inactive); in the experiment with SK-MEL-2, 20.5 µM (inactive); with U-251 it was 23.9 µM (inactive); in the experiment on 786-0, 36 µM (inactive); in the experiment on M19-MEL, 42.8 µM (inactive); in the experiment on HT-29 it was 33 µM (inactive). Besides, the GI50 with COLO 205 is 26.4 µM (inactive); in the experiment on NCI-H23, 18 µM (inactive); in the experiment on HOP-92, 13.5 µM (inactive); in the experiment with HCT-116, 17.4 µM (inactive); in the experiment on RXF 393 it was 16.6 µM (inactive); in the experiment on Malme-3M, 17.5 µM (inactive). For the same compound, the GI50 was 18.8 µM (inactive) in the experiment with UACC-257 and 24.1 µM (inactive) in the experiment with LXFL 529.
For `N#C/C(=C\c1cccc(Cl)c1Cl)c1ccccc1`, the GI50 is 19.1 µM (inactive) in the experiment on SNB-75; 47.1 µM (inactive) with SK-MEL-2; 36.2 µM (inactive) in the experiment on U-251; 61.5 µM (inactive) in the experiment with OVCAR-4; 37.6 µM (inactive) with 786-0; > 84.3 µM (inactive) in the experiment on M19-MEL. Besides, the GI50 with HT-29 is > 89.5 µM (inactive); with COLO 205 it was > 100 µM (inactive); with NCI-H23, 40.8 µM (inactive); with HOP-92, 44.5 µM (inactive); in the experiment with HCT-116 it was 33 µM (inactive); in the experiment on RXF 393 it was 31 µM (inactive). Further, the GI50 in the experiment with Malme-3M was > 48.2 µM (inactive); with UACC-257, > 100 µM (inactive); in the experiment with LXFL 529 it was 54 µM (inactive); in the experiment on CAKI-1, 40.1 µM (inactive).
